The text below walks through data of US8445680B2, “Tetrahydrothieno pyridines” (Merck Sharp & Dohme Corp., priority 2008, dated 2013).

Each structure is given as a SMILES string. Counter-ions that a name gives are not always drawn.

This assay deals with T1, FLAG-tagged full length PHD2 (Homo sapiens, UniProt Q9GZT9).
T1 construct: FLAG-tagged full length PHD2; FLAG; made in house; host or cells: baculovirus-infected Sf9 cells
Briefly: PHD2 inhibition assay (time resolved fluorescence, HIF-1α peptide hydroxylation, VHL detection). The format is biochemical. The note with it: 0.2 μM 2-oxoglutarate, 0.5 μM HIF-1α peptide, 2 hr at room temperature; read-out: PHD2 Activity (PHD2 binding activity expressed as IC50). How it is done: To each well of a 96-well plate was added 1 μL of test compound in DMSO and 20 μl of assay buffer (50 mM Tris pH 7.4/0.01% Tween-20/0.1 mg/ml bovine serum albumin/10 μM ferrous sulfate/1 mM sodium ascorbate/20 μg/ml catalase) containing 0.15 μg/ml FLAG-tagged full length PHD2 expressed in and purified from baculovirus-infected Sf9 cells. After a 30 min preincubation at room temperature, the enzymatic reactions were initiated by the addition of 4 μL of substrates (final concentrations of 0.2 μM 2-oxoglutarate and 0.5 μM HIF-1α peptide biotinyl-[…]).

T1 sequence (Q9GZT9 whole entry): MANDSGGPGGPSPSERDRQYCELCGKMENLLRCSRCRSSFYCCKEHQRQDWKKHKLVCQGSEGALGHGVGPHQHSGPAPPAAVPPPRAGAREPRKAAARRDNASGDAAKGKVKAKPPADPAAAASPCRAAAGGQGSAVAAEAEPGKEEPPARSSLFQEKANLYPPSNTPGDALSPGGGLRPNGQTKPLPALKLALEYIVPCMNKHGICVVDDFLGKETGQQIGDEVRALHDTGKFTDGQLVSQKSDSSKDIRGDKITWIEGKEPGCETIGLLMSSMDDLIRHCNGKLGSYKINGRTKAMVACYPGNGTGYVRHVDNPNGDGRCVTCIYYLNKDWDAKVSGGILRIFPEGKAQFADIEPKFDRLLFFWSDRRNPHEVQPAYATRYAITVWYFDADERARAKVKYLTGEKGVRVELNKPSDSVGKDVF

With `CCc1ccc(Cn2c3c(c(O)c(C(=O)NCC(=O)O)c2=O)CS(=O)(=O)C3)cc1` [Example 66, N-{[1-(4-ethylbenzyl)-4-hydroxy-6,6-dioxido-2-oxo-1,2,5,7-tetrahydrothieno[3,4-b]pyridin-3-yl]carbonyl}glycine], the half-maximal inhibitory concentration (IC50) – broadly, the concentration that inhibits the measured activity by half – is at most 10 nM.
The result for `Cc1ccccc1-c1cnc(Cn2c3c(c(O)c(C(=O)NCC(=O)O)c2=O)CSC3)cn1` [Example 54, N-[(4-hydroxy-1-{[5-(2-methylphenyl)pyrazin-2-yl]methyl}-2-oxo-1,2,5,7-tetrahydrothieno[3,4-b]pyridin-3-yl)carbonyl]glycine] reads at most 10 nM; that for `Cc1n[nH]c(C)c1-c1ccc(Cn2c3c(c(O)c(C(=O)NCC(=O)O)c2=O)CSC3)cc1` [Example 31, N-({1-[4-(3,5-dimethyl-1H-pyrazol-4-yl)benzyl]-4-hydroxy-2-oxo-1,2,5,7-tetrahydrothieno[3,4-b]pyridin-3-yl}carbonyl)glycine], at most 10 nM; that for `O=C(O)CNC(=O)c1c(O)c2c(n(Cc3nc(-c4ccccc4)cs3)c1=O)CSC2` [Example 7, N-({4-hydroxy-2-oxo-1-[(4-phenyl-1,3-thiazol-2-yl)methyl]-1,2,5,7-tetrahydrothieno[3,4-b]pyridin-3-yl}carbonyl)glycine], at most 10 nM.
For `O=C(O)CNC(=O)c1c(O)c2c(n(Cc3ccc(OC(F)(F)F)cc3)c1=O)CSC2` [Example 20, N-({4-hydroxy-2-oxo-1-[4-(trifluoromethoxy)benzyl]-1,2,5,7-tetrahydrothieno[3,4-b]pyridin-3-yl}carbonyl)glycine] the value was at most 10 nM.
The result for `O=C(O)CNC(=O)c1c(O)c2c(n(Cc3cnc(-c4cc(F)ccc4F)cn3)c1=O)CSC2` [Example 56, N-[(l-{[5-(2,5-difluorophenyl)pyrazin-2-yl]methyl}-4-hydroxy-2-oxo-1,2,5,7-tetrahydrothieno[3,4-b]pyridin-3-yl)carbonyl]glycine] reads at most 10 nM; that for `N#Cc1cccc(-c2ccc(Cn3c4c(c(O)c(C(=O)NCC(=O)O)c3=O)CSC4)cc2)c1` [Example 46, N-({1-[(3′-cyanobiphenyl-4-yl)methyl]-4-hydroxy-2-oxo-1,2,5,7-tetrahydrothieno[3,4-b]pyridin-3-yl}carbonyl)glycine], at most 10 nM; that for `CCN(CC)C(=O)c1ccccc1-c1ccc(Cn2c3c(c(O)c(C(=O)NCC(=O)O)c2=O)CSC3)cc1` [Example 37, N-{[1-({2′-[(diethylamino)carbonyl]biphenyl-4-yl}methyl)-4-hydroxy-2-oxo-1,2,5,7-tetrahydrothieno[3,4-b]pyridin-3-yl]carbonyl}glycine], at most 10 nM.
For the compound `O=C(O)CNC(=O)c1c(O)c2c(n(Cc3ccc(-c4ccccc4C(F)(F)F)nc3)c1=O)CSC2` [Example 45, N-{[4-hydroxy-2-oxo-1-({6-[2-(trifluoromethyl)phenyl]pyridinium-3-yl}methyl)-1,2,5,7-tetrahydrothieno[3,4-b]pyridin-3-yl]carbonyl}glycine trifluoroacetate], the concentration for half-maximal inhibition (IC50) was at most 10 nM.
The result for `O=C(O)CNC(=O)c1c(O)c2c(n(Cc3ccc(C(F)(F)F)cc3)c1=O)CS(=O)(=O)C2` [Example 63, N-({4-hydroxy-6,6-dioxido-2-oxo-1-[4-(trifluoromethyl)benzyl]-1,2,5,7-tetrahydrothieno[3,4-6]pyridin-3-yl}carbonyl)glycine] reads at most 10 nM.
The result for `Cc1ccc(-c2ccc(Cn3c4c(c(O)c(C(=O)NCC(=O)O)c3=O)CSC4)cc2)cc1` [Example 25, N-({4-hydroxy-1-[(4′-methylbiphenyl-4-yl)methyl]-2-oxo-1,2,5,7-tetrahydrothieno[3,4-b]pyridin-3-yl}carbonyl)glycine] reads at most 10 nM.
As for `CCOc1ccc(-c2ccc(Cn3c4c(c(O)c(C(=O)NCC(=O)O)c3=O)CSC4)cc2)cc1` [Example 34, N-({1-[(4′-ethoxybiphenyl-4-yl)methyl]-4-hydroxy-2-oxo-1,2,5,7-tetrahydrothieno[3,4-b]pyridin-3-yl}carbonyl)glycine], the IC50 was at most 10 nM.
For `O=C(O)CNC(=O)c1c(O)c2c(n(Cc3ccc(-c4cccc(Cl)c4)nc3)c1=O)CSC2` [Example 39, N-[(l-{[6-(3-chlorophenyl)pyridinium-3-yl]methyl}-4-hydroxy-2-oxo-1,2,5,7-tetrahydrothieno[3,4-b]pyridin-3-yl)carbonyl]glycine trifluoroacetate] the value was at most 10 nM; for `CSc1ccccc1-c1ccc(Cn2c3c(c(O)c(C(=O)NCC(=O)O)c2=O)CSC3)cn1` [Example 47, N-{[4-hydroxy-1-({6-[2-(methylthio)phenyl]pyridinium-3-yl}methyl)-2-oxo-1,2,5,7-tetrahydrothieno[3,4-b]pyridin-3-yl]carbonyl}glycine trifluoroacetate], at most 10 nM; for `O=C(O)CNC(=O)c1c(O)c2c(n(-c3ccc(Br)cc3)c1=O)CSC2` [Example 12, N-{[1-(4-bromophenyl)-4-hydroxy-2-oxo-1,2,5,7-tetrahydrothieno[3,4-b]pyridin-3-yl]carbonyl]glycine], at most 10 nM.
For `CCc1ccccc1-c1ccc(Cn2c3c(c(O)c(C(=O)NCC(=O)O)c2=O)CSC3)cn1` [Example 50, N-[(l-{[6-(2-ethylphenyl)pyridinium-3-yl]methyl}-4-hydroxy-2-oxo-1,2,5,7-tetrahydrothieno[3,4-b]pyridin-3-yl)carbonyl]glycine trifluoroacetate] the value was at most 10 nM; for `O=C(O)CNC(=O)c1c(O)c2c(n(Cc3cnn(-c4ccccc4)c3)c1=O)CSC2` [Example 24, N-({4-hydroxy-2-oxo-1-[(1-phenyl-1H-pyrazol-4-yl)methyl]-1,2,5,7-tetrahydrothieno[3,4-b]pyridin-3-yl}carbonyl)glycine], at most 10 nM; for `O=C(O)CNC(=O)c1c(O)c2c(n(Cc3ccc(-c4cccc5ncccc45)cc3)c1=O)CSC2` [Example 52, N-{[4-hydroxy-2-oxo-1-(4-quinolinium-5-ylbenzyl)-1,2,5,7-tetrahydrothieno[3,4-b]pyridin-3-yl]carbonyl}glycine chloride], at most 10 nM.
For `O=C(O)CNC(=O)c1c(O)c2c(n(Cc3ccc(Cl)nc3)c1=O)CSC2` [Example 1, N-({1-[(6-chloropyridin-3-yl)methyl]-4-hydroxy-2-oxo-1,2,5,7-tetrahydrothieno[3,4-b]pyridin-3-yl}carbonyl)glycine] the value was at most 10 nM; for `CCc1ccc(Cn2c3c(c(O)c(C(=O)NCC(=O)O)c2=O)CSC3)cc1` [Example 17, N-{[1-(4-ethylbenzyl)-4-hydroxy-2-oxo-1,2,5,7-tetrahydrothieno[3,4-b]pyridin-3-yl]carbonyl}glycine], at most 10 nM.
As for `CC(C)(C)c1ccc(Cn2c3c(c(O)c(C(=O)NCC(=O)O)c2=O)CSC3)cc1` [Example 9, N-{[1-(4-tert-butylbenzyl)-4-hydroxy-2-oxo-1,2,5,7-tetrahydrothieno[3,4-b]pyridin-3-yl]caxbonyl]glycine], the IC50 is at most 10 nM.
On to `O=C(O)CNC(=O)c1c(O)c2c(n(Cc3cnc(-c4ccccc4C(F)(F)F)cn3)c1=O)CSC2` [Example 57, N-{[4-hydroxy-2-oxo-1-({5-[2-(trifluoromethyl)phenyl]pyrazin-2-yl}methyl)-1,2,5,7-tetrahydrothieno[3,4-b]pyridin-3-yl]carbonyl}glycine], for which the IC50 was at most 10 nM.
As to `O=C(O)CNC(=O)c1c(O)c2c(n(Cc3ccc(-c4ccccc4Cl)nc3)c1=O)CSC2` [Example 41, N-[(l-{[6-(2-chlorophenyl)pyridinium-3-yl]methyl}-4-hydroxy-2-oxo-1,2,5,7-tetrahydrothieno[3,4-b]pyridin-3-yl)carbonyl]glycine trifluoroacetate], the IC50 is at most 10 nM.
Regarding `CC(C)c1ccc(Cn2c3c(c(O)c(C(=O)NCC(=O)O)c2=O)CSC3)cc1` [Example 8, N-{[4-hydroxy-1-(4-isopropylbenzyl)-2-oxo-1,2,5,7-tetrahydrothieno[3,4-b]pyridin-3-yl]carbonyl]glycine], the IC50 is at most 10 nM.
For `O=C(O)CNC(=O)c1c(O)c2c(n(Cc3ccc(Cl)c(Cl)c3)c1=O)CSC2` [Example 19, N-{[1-(3,4-dichlorobenzyl)-4-hydroxy-2-oxo-1,2,5,7-tetrahydrothieno[3,4-b]pyridin-3-yl]carbonyl}glycine] the value was at most 10 nM; for `O=C(O)CNC(=O)c1c(O)c2c(n(Cc3ccc(Cl)cc3)c1=O)CSC2` [Example 16, N-{[1-(4-chlorobenzyl)-4-hydroxy-2-oxo-1,2,5,7-tetrahydrothieno[3,4-b]pyridin-3-yl]carbonyl}glycine], at most 10 nM; for `O=C(O)CNC(=O)c1c(O)c2c(n(Cc3nc(-c4ccccc4)cs3)c1=O)CS(=O)(=O)C2` [Example 62, N-({4-hydroxy-6,6-dioxido-2-oxo-1-[(4-phenyl-1,3-thiazol-2-yl)methyl]-1,2,5,7-tetrahydrothieno[3,4-b]pyridin-3-yl}carbonyl)glycine], 10 to 100 nM.
The result for `O=C(O)CNC(=O)c1c(O)c2c(n(Cc3ccc(-c4ccccc4)cc3)c1=O)CS(=O)(=O)C2` [Example 64, N-{[1-(biphenyl-4-ylmethyl)-4-hydroxy-6,6-dioxido-2-oxo-1,2,5,7-tetrahydrothieno[3,4-b]pyridin-3-yl]carbonyl}glycine] reads at most 10 nM; that for `O=C(O)CNC(=O)c1c(O)c2c(n(Cc3ccc(-c4ccc(Cl)cc4)cc3)c1=O)CSC2` [Example 30, N-({1-[(4′-chlorobiphenyl-4-yl)methyl]-4-hydroxy-2-oxo-1,2,5,7-tetrahydrothieno[3,4-b]pyridin-3-yl}carbonyl)glycine], at most 10 nM.
